These are literature values, as cited in publication PMC9353746 (ACS chemical neuroscience, 2021).

What is called pKi is −log10 of the Ki, conventionally taken in molar units.

This data set addresses T1, recombinant A1 adenosine receptor (human) (Homo sapiens, UniProt P30542).
T1 sequence (P30542 1-326): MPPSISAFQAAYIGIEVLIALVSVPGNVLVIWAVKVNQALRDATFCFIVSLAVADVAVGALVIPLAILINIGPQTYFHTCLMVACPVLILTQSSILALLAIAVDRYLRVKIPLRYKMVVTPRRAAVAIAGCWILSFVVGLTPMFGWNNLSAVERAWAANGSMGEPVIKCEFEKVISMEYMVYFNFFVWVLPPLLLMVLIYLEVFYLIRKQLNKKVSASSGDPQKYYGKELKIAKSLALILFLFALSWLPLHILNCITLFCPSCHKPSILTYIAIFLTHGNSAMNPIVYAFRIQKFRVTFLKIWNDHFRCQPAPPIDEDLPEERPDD
The following applies: read-out: Ki, A1R.

pKi: −log10 of the molar value.

Take `COc1cccc(-c2c(C#N)c(N)nc(SCc3cccc(C)n3)c2C#N)c1` [[^11C]MMPD, 2-amino-4-(3-(methoxy-^11C)phenyl)-6-(((6-methylpyridin-2-yl)methyl)thio)pyridine-3,5-dicarbonitrile]: the pKi was 9.31.
